Data as given in ChEMBL document CHEMBL1914384, “Design, synthesis, and structure-activity relationship studies of highly potent novel benzoxazinyl-oxazolidinone antibacterial agents” (J Med Chem, 2011).
Values after ≈ are worked out from the molar mass of the structure shown.

Tests used:
[1] = tested on: Staphylococcus aureus; test: Antibacterial activity against Staphylococcus aureus ATCC 29213 after 16 hrs by agar dilution method; type: functional; details: ATCC 29213, 16 h
[2] = tested on: Staphylococcus aureus; test: Antibacterial activity against methicillin-resistant Staphylococcus aureus after 16 hrs by agar dilution method; type: functional
[3] = tested on: Staphylococcus epidermidis; test: Antibacterial activity against methicillin-resistant Staphylococcus epidermidis after 16 hrs by agar dilution method; type: functional
[4] = tested on: Streptococcus pneumoniae; test: Antibacterial activity against penicillin-resistant Streptococcus pneumoniae after 16 hrs by agar dilution method; type: functional
[5] = tested on: Enterococcus faecalis; test: Antibacterial activity against Enterococcus faecalis after 16 hrs by agar dilution method; type: functional
[6] = tested on: Staphylococcus aureus; test: Antibacterial activity against linezolid-resistant Staphylococcus aureus after 16 hrs by agar dilution method; type: functional
[7] = tested on: Staphylococcus epidermidis; test: Antibacterial activity against linezolid-resistant Staphylococcus epidermidis after 16 hrs by agar dilution method; type: functional
[8] = tested on: Enterococcus faecalis; test: Antibacterial activity against linezolid-resistant Enterococcus faecalis after 16 hrs by agar dilution method; type: functional
[9] = tested on: Enterococcus faecium; test: Antibacterial activity against linezolid-resistant Enterococcus faecium after 16 hrs by agar dilution method; type: functional
[10] = tested on: Staphylococcus aureus; test: Antibacterial activity against Staphylococcus aureus ATCC 19636 infected in mouse systemic infection model administered orally 1 hour after infection measured 48 hrs of post-treatment; type: functional; details: ATCC 19636, po
[11] = tested on: Staphylococcus aureus; test: Antibacterial activity against methicillin-resistant Staphylococcus aureus ATCC 33591 infected in NSA mouse neutropenic model administered orally 1 hour after infection measured 48 hrs post-treatment; type: functional; details: ATCC 33591, po
[12] = tested on: Staphylococcus aureus; test: Antibacterial activity against Linezolid-resistant Staphylococcus aureus after 16 hrs by agar dilution method relative to Linezolid; type: functional
[13] = tested on: Staphylococcus epidermidis; test: Antibacterial activity against Linezolid-resistant Staphylococcus epidermidis after 16 hrs by agar dilution method relative to Linezolid; type: functional
[14] = tested on: Enterococcus faecalis; test: Antibacterial activity against Linezolid-resistant Enterococcus faecalis after 16 hrs by agar dilution method relative to Linezolid; type: functional
[15] = tested on: Enterococcus faecium; test: Antibacterial activity against Linezolid-resistant Enterococcus faecium after 16 hrs by agar dilution method relative to Linezolid; type: functional
[16] = tested on: Staphylococcus aureus; test: Antibacterial activity against Staphylococcus aureus ATCC 19636 infected in mouse systemic infection model administered orally 1 hour after infection measured 48 hrs post-treatment relative to Linezolid; type: functional
[17] = tested on: Staphylococcus aureus; test: Antibacterial activity against methicillin-resistant Staphylococcus aureus ATCC 33591 infected in NSA mouse neutropenic model administered orally 1 hour after infection measured 48 hrs post-treatment relative to Linezolid; type: functional
[18] = Cmax in Sprague-Dawley rat at 15 mg/kg, po by LC-MS analysis; type: ADME, organism-based; design: dose 15 mg/kg, route oral; details: in vivo
[19] = Tmax in Sprague-Dawley rat at 15 mg/kg, po by LC-MS analysis; type: ADME, organism-based; design: dose 15 mg/kg, route oral; details: in vivo
[20] = Half life in Sprague-Dawley rat at 15 mg/kg, po by LC-MS analysis; type: ADME, organism-based; design: dose 15 mg/kg, route oral; details: in vivo
[21] = AUC (0 to infinity) in Sprague-Dawley rat at 15 mg/kg, po by LC-MS analysis; type: ADME, organism-based; design: time infinity, dose 15 mg/kg, route oral; details: plasma
[22] = Clearance in Sprague-Dawley rat at 15 mg/kg, po by LC-MS analysis; type: ADME, organism-based; design: dose 15 mg/kg, route oral; details: in vivo
[23] = Oral bioavailability in Sprague-Dawley rat at 15 mg/kg by LC-MS analysis; type: ADME, organism-based; details: in vivo
[24] = Cmax in Sprague-Dawley rat at 15 mg/kg, iv by LC-MS analysis; type: ADME, organism-based; design: dose 15 mg/kg, route intravenous; details: in vivo
[25] = Clearance in Sprague-Dawley rat at 15 mg/kg, iv by LC-MS analysis; type: ADME, organism-based; design: dose 15 mg/kg, route intravenous; details: in vivo
[26] = Cmax in Sprague-Dawley rat at 50 mg/kg, po by LC-MS analysis; type: ADME, organism-based; design: dose 50 mg/kg, route oral; details: in vivo
[27] = Tmax in Sprague-Dawley rat at 50 mg/kg, po by LC-MS analysis; type: ADME, organism-based; design: dose 50 mg/kg, route oral; details: in vivo
[28] = Half life in Sprague-Dawley rat at 50 mg/kg, po by LC-MS analysis; type: ADME, organism-based; design: dose 50 mg/kg, route oral; details: in vivo
[29] = AUC (0 to infinity) in Sprague-Dawley rat at 50 mg/kg, po by LC-MS analysis; type: ADME, organism-based; design: time infinity, dose 50 mg/kg, route oral; details: plasma
[30] = Oral bioavailability in Sprague-Dawley rat at 50 mg/kg by LC-MS analysis; type: ADME, organism-based; details: in vivo
[31] = Half life in Sprague-Dawley rat at 10 mg/kg, iv by LC-MS analysis; type: ADME, organism-based; design: dose 10 mg/kg, route intravenous; details: in vivo
[32] = AUC (0 to infinity) in Sprague-Dawley rat at 10 mg/kg, iv by LC-MS analysis; type: ADME, organism-based; design: time infinity, dose 10 mg/kg, route intravenous; details: plasma
[33] = Clearance in Sprague-Dawley rat at 10 mg/kg, iv by LC-MS analysis; type: ADME, organism-based; design: dose 10 mg/kg, route intravenous; details: in vivo
[34] = tested on: Staphylococcus aureus; test: Antibacterial activity against Staphylococcus aureus ATCC 29213 after 16 hrs by agar dilution method relative to Linezolid; type: functional
[35] = tested on: Staphylococcus epidermidis; test: Antibacterial activity against methicillin-resistant Staphylococcus epidermidis after 16 hrs by agar dilution method relative to Linezolid; type: functional
[36] = tested on: Streptococcus pneumoniae; test: Antibacterial activity against penicillin-resistant Streptococcus pneumoniae after 16 hrs by agar dilution method relative to Linezolid; type: functional
[37] = tested on: Enterococcus faecalis; test: Antibacterial activity against Enterococcus faecalis after 16 hrs by agar dilution method relative to Linezolid; type: functional

Compound | MIC [1] | MIC [2] | MIC [3] | MIC [4] | MIC [5] | MIC [6] | MIC [7] | MIC [8] | MIC [9] | ED50 [10] | ED50 [11] | fold change (FC) [12] | fold change (FC) [13] | fold change (FC) [14] | fold change (FC) [15] | also measured
CC(=O)NC[C@@H]1OC(=O)N2c3ccc(-c4ccc(C#CCO)nc4)cc3OC[C@@H]12 | 0.5 µg/mL (≈ 1.27 µM) | 0.25 µg/mL (≈ 0.635 µM) | 0.25 µg/mL (≈ 0.635 µM) | 0.5 µg/mL (≈ 1.27 µM) | 0.5 µg/mL (≈ 1.27 µM) | 4 µg/mL (≈ 10.2 µM) | 1 µg/mL (≈ 2.54 µM) | 1 µg/mL (≈ 2.54 µM) | 1 µg/mL (≈ 2.54 µM) |  |  |  |  |  |  | 
CC(=O)NC[C@@H]1OC(=O)N2c3ccc(-c4ccc(C#N)nc4)cc3OC[C@@H]12 | 0.125 µg/mL (≈ 0.343 µM) | 0.25 µg/mL (≈ 0.686 µM) | 0.25 µg/mL (≈ 0.686 µM) | 0.25 µg/mL (≈ 0.686 µM) | 0.5 µg/mL (≈ 1.37 µM) | 2 µg/mL (≈ 5.49 µM) | 1 µg/mL (≈ 2.74 µM) | 1 µg/mL (≈ 2.74 µM) | 0.5 µg/mL (≈ 1.37 µM) | 2.5 mg/kg | < 5 mg/kg | 8 | 8 | 8 | 8 | fold change (FC) [16]: 4; fold change (FC) [17]: 3; Cmax [18]: 5000 ng/mL; Tmax [19]: 4 h; half-life [20]: 5.5 h; AUC(0-inf) [21]: 66 µg·h/mL; CL/F [22]: 3.82 mL/min/kg; bioavailability [23]: 81%; Cmax [24]: 7000 ng/mL; clearance [25]: 3.07 mL/min/kg
CC(=O)NC[C@@H]1OC(=O)N2c3ccc(-c4ccc(C5(C#N)CC5)nc4)cc3OC[C@@H]12 | 0.5 µg/mL (≈ 1.24 µM) | 0.5 µg/mL (≈ 1.24 µM) | 0.5 µg/mL (≈ 1.24 µM) | 0.5 µg/mL (≈ 1.24 µM) | 0.5 µg/mL (≈ 1.24 µM) | 8 µg/mL (≈ 19.8 µM) | 1 µg/mL (≈ 2.47 µM) | 1 µg/mL (≈ 2.47 µM) | 1 µg/mL (≈ 2.47 µM) |  |  |  |  |  |  | 
CC(=O)NC[C@@H]1OC(=O)N2c3ccc(-c4ccc(C(C)=O)nc4)cc3OC[C@@H]12 | 0.5 µg/mL (≈ 1.31 µM) | 0.25 µg/mL (≈ 0.656 µM) | 0.25 µg/mL (≈ 0.656 µM) | 0.5 µg/mL (≈ 1.31 µM) | 0.5 µg/mL (≈ 1.31 µM) | 2 µg/mL (≈ 5.24 µM) | 1 µg/mL (≈ 2.62 µM) | 1 µg/mL (≈ 2.62 µM) | 1 µg/mL (≈ 2.62 µM) | > 20 mg/kg |  | 8 | 8 | 8 | 8 | 
CC(=O)NC[C@@H]1OC(=O)N2c3ccc(-c4ccc(N)nc4)cc3OC[C@@H]12 | 0.5 µg/mL (≈ 1.41 µM) | 0.5 µg/mL (≈ 1.41 µM) | 0.5 µg/mL (≈ 1.41 µM) | 0.5 µg/mL (≈ 1.41 µM) | 0.5 µg/mL (≈ 1.41 µM) | 16 µg/mL (≈ 45.2 µM) | 4 µg/mL (≈ 11.3 µM) | 2 µg/mL (≈ 5.64 µM) | 2 µg/mL (≈ 5.64 µM) |  |  |  |  |  |  | 
CC(=O)NC[C@@H]1OC(=O)N2c3ccc(-c4ccc([N+](=O)[O-])nc4)cc3OC[C@@H]12 | 0.125 µg/mL (≈ 0.325 µM) | 0.25 µg/mL (≈ 0.65 µM) | 0.25 µg/mL (≈ 0.65 µM) | 0.5 µg/mL (≈ 1.3 µM) | 0.5 µg/mL (≈ 1.3 µM) | 2 µg/mL (≈ 5.2 µM) | 2 µg/mL (≈ 5.2 µM) | 1 µg/mL (≈ 2.6 µM) | 1 µg/mL (≈ 2.6 µM) |  |  |  |  |  |  | 
CC(=O)NC[C@@H]1OC(=O)N2c3ccc(-c4ccc(C5(N)CC5)nc4)cc3OC[C@@H]12 | 0.25 µg/mL (≈ 0.634 µM) | 0.25 µg/mL (≈ 0.634 µM) | 0.25 µg/mL (≈ 0.634 µM) | 0.5 µg/mL (≈ 1.27 µM) | 0.5 µg/mL (≈ 1.27 µM) | 16 µg/mL (≈ 40.6 µM) | 4 µg/mL (≈ 10.1 µM) | 4 µg/mL (≈ 10.1 µM) | 4 µg/mL (≈ 10.1 µM) |  |  |  |  |  |  | 
CC(=O)NC[C@H]1CN(c2ccc(N3CCOCC3)c(F)c2)C(=O)O1 [LINEZOLID] | 1 µg/mL (≈ 2.96 µM) | 1 µg/mL (≈ 2.96 µM) | 1 µg/mL (≈ 2.96 µM) |  |  | > 16 µg/mL | 16 µg/mL (≈ 47.4 µM) |  | 8 µg/mL (≈ 23.7 µM) | 9.5 mg/kg | 14.1 mg/kg |  |  |  |  | 
CC(=O)NC[C@@H]1OC(=O)N2c3ccc(-c4ccc(N5CCOC5=O)nc4)cc3OC[C@@H]12 | 0.25 µg/mL (≈ 0.589 µM) | 0.125 µg/mL (≈ 0.295 µM) | 0.125 µg/mL (≈ 0.295 µM) | 0.25 µg/mL (≈ 0.589 µM) | 0.5 µg/mL (≈ 1.18 µM) | 2 µg/mL (≈ 4.71 µM) | 1 µg/mL (≈ 2.36 µM) | 1 µg/mL (≈ 2.36 µM) | 0.5 µg/mL (≈ 1.18 µM) | 11.3 mg/kg | 9.5 mg/kg | 8 | 8 | 8 | 8 | Cmax [26]: 9000 ng/mL; Tmax [27]: 6 h; half-life [28]: 4.7 h; AUC(0-inf) [29]: 123 µg·h/mL; bioavailability [30]: 18%; half-life [31]: 3.7 h; AUC(0-inf) [32]: 136 µg·h/mL; clearance [33]: 1.28 mL/min/kg; fold change (FC) [34]: 4; fold change (FC) [35]: 4; fold change (FC) [36]: 4; fold change (FC) [37]: 4
